Results from ChEMBL document CHEMBL4033709, “Quorum sensing modulators exhibit cytotoxicity in Hodgkin's lymphoma cells and interfere with NF-κB signaling” (Bioorg Med Chem Lett, 2017).
Calls of active or inactive are those of the source. No cut-off for these calls is given here.

Experiments:
Homo sapiens = species on record: Homo sapiens; assay: (§1) Inhibition of NF-kappaB (unknown origin) expressed in human L428 cells after 2 hrs by luciferase reporter gene assay; assay type: cell-based
L-428 [1] = assay: Inhibition of NFkappaB p50 subunit expression in nuclear fractions of human L428 cells at 2.5 ug/ml after 2 hrs by Western method; assay type: functional, cell-based
L-428 [2] = assay: Inhibition of NFkappaB p65 subunit expression in nuclear fractions of human L428 cells at 2.5 ug/ml after 2 hrs by Western method; assay type: functional, cell-based
L-428 [3] = assay: Cytotoxicity against human L428 cells after 24 by XTT assay; assay type: functional, cell-based
L-428 [4] = assay: Inhibition of NFkappaB RelB subunit expression in cytosolic fractions of human L428 cells at 2.5 ug/ml after 2 hrs by Western method; assay type: functional, cell-based
L-428 [5] = assay: Inhibition of NFkappaB RelB subunit expression in nuclear fractions of human L428 cells at 2.5 ug/ml after 2 hrs by Western method; assay type: functional, cell-based
L-428 [6] = assay: Inhibition of NFkappaB p50 subunit expression in cytosolic fractions of human L428 cells at 2.5 ug/ml after 2 hrs by Western method; assay type: functional, cell-based
A549 [7] = assay: Anti-migratory activity against human A549 cells assessed as reduction in wound closure at 7.94 uM after 48 hrs by wound-scratch assay; assay type: functional, cell-based
L-428 [8] = assay: Inhibition of NFkappaB p65 subunit expression in cytosolic fractions of human L428 cells at 2.5 ug/ml after 2 hrs by Western method; assay type: functional, cell-based
[9] = as §1; assay type: cell-based; details: L-428, 2 h
L-428 [10] = assay: Cytotoxicity against human L428 cells after 48 by XTT assay; assay type: functional, cell-based
A549 [11] = assay: Anti-migratory activity against human A549 cells assessed as reduction in wound closure at 5.6 uM after 48 hrs by wound-scratch assay; assay type: functional, cell-based
A549 [12] = assay: Anti-migratory activity against human A549 cells assessed as reduction in wound closure at 2.6 uM after 48 hrs by wound-scratch assay; assay type: functional, cell-based

SMILES | inhibition (Homo sapiens) | inhibition (L-428 [1]) | inhibition (L-428 [2]) | IC50 (L-428 [3]) | inhibition (L-428 [4]) | inhibition (L-428 [5]) | inhibition (L-428 [6]) | inhibition (L-428 [8]) | IC50 [9] | IC50 (L-428 [10]) | further results
CCCCCCCCCC(=O)CC(=O)N[C@H]1CCOC1=O | Dose-dependent effect | – | – | – | – | – | – | – | – | – | –
CCCC(=O)N[C@H]1CCOC1=O | Dose-dependent effect | – | – | – | – | – | – | – | – | – | –
COc1cc(/C=C/C(=O)CC(=O)/C=C/c2ccc(O)c(OC)c2)ccc1O | Active | – | – | – | – | – | – | – | – | – | –
O=C1C=C(Br)/C(=C/Br)O1 | Dose-dependent effect | Active | Active | 5.16 µM | Active | Active | Active | Active | 9.9 µM | 3.05 µM | Activity (A549 [7]): Active
O=C(CCCCCCCCCN=C=S)CC(=O)N[C@H]1CCOC1=O | Dose-dependent effect | Active | Active | 13.3 µM | Active | Active | Active | Active | 4.1 µM | 12.4 µM | Activity (A549 [11]): Active
CCCCCCCc1[nH]c2ccccc2c(=O)c1O | Dose-dependent effect | – | – | – | – | – | – | – | – | – | –
C#CCCCCCCCCC(=O)CC(=O)N[C@H]1CCOC1=O | Dose-dependent effect | – | – | – | – | – | – | – | – | – | –
O=C(CCCCCCCC(Cl)CN=C=S)CC(=O)N[C@H]1CCOC1=O (some centres undefined) | Dose-dependent effect | Active | Active | 15.1 µM | Active | Active | Active | Active | 12.8 µM | 18.3 µM | Activity (A549 [12]): Active
CCCCCCCCCCCN=C=S | Dose-dependent effect | – | – | – | – | – | – | – | – | – | –
